The record followed here is publication PMC12326358, “Effect of Quantitative Structural Properties and Drug Formulation in Four Cannabinoids (Cannabidiol, Cannabigerol, Cannabichromene, and Cannabinol) on Their Lymphatic Transport after Enteral Administration in Rats” (Molecular Pharmaceutics, 2025).

Data set [1] in a line: Pharmacokinetic studies (oral and intravenous dosing) in jugular vein cannulated rats. As to conditions: for AUC(0-inf): AUC0-inf; for bioavailability: F0-inf (absolute oral bioavailability). The procedure: Absolute oral bioavailability and other pharmacokinetic parameters were determined in a series of two-period, crossover studies, where the cannabinoids were administered intravenously in the first period, and orally in the second. Both jugular veins were cannulated (3 Fr polyurethane catheter, Instech Laboratories, Plymouth Meeting, USA). One catheter was used for intravenous dosing, and the second one was used for repetitive blood sampling in order to avoid sampling cannula contamination with highly concentrated intravenous drug solution. The anesthesia was performed using a rapid inhalational induction with isoflurane (IsoFlo, Zoetis, Czech Republic) followed by intramuscular injection of ketamine 100 mg/kg (Narkamon, Bioveta a.s., Czech Republic) and xylazine 5 mg/kg (Rometar, Bioveta a.s., Czech Republic). After a three-day recovery period, the rats were intravenously dosed with the particular cannabinoid (1 mg of CBD, 1.5 mg of the other three cannabinoids in the form of nanoemulsion, volume 100 μL). Systemic blood (100 μL) was drawn at 5, 15, and 30 min and at 1, 2, 4, 6, 8, 10, and 24 h(s) postdose. After a two-day wash-out period, the dosing via oral gavage followed (10 mg of CBD, 15 mg of the other three cannabinoids in the form of nanoemulsion, volume 1 mL). Systemic blood (100 μL) was drawn at 0 (predose), 0.5, 1, 2, 3, 4, 5, 6, 8, 10, and 24 h(s). Blood samples were centrifuged (4500 rpm for 10 min) and serum was extracted and stored in −80 °C until analysis. The laboratory was unaware of animal assignment to particular experimental groups (laboratory blinding).
Serum and lymph concentrations in all studies were dose-normalized to 1 mg/kg prior to further calculations. AUC values were determined using linear trapezoidal rule. Exact actual sampling times were used for this purpose. Scheduled sampling times were used for mean concentration plotting in the graphs. PK-solver add-on for MS Excel was used for all basic pharmacokinetic calculations. GraphPad Prism version 10.2.2 (GraphPad Software, San Diego, CA, USA) was used for all statistical analyses and graph plotting. Unpaired Student’s t test was used to compare pharmacokinetic and lymphatic transport parameters between the experimental groups. Level of significance was set to p < 0.05.
Lymphatic transport parameters were defined and calculated as previously described. , Briefly, absolute bioavailability via lymph (FAL) was defined as percentage of administered drug dose absorbed into the lymph. It was determined directly from lymph volume and drug concentration in lymph duct cannulated rats. Absolute bioavailability via portal vein (FAP) was analogically defined as percentage of administered drug dose reaching the systemic circulation after direct absorption into blood. It was calculated using equation 1 FAP=AUCent/AUCiv where AUCent is the area under the dose-normalized blood concentration–time curve after enteral dosing in lymph duct cannulated (i.e., lymph deprived) rats and AUCiv is the respective parameter in a separate intravenously dosed group. Total absolute bioavailability (F) in lymph duct cannulated rats was calculated as a sum of FAL and FAP. In normal animals with no lymph duct cannulation, F was calculated using standard formula for oral bioavailability: 2 F=AUCpo/AUCiv Relative bioavailability via lymph (FRL) was defined as the percentage of systemically available drug that was absorbed via lymph. It was calculated using the equation 3 FRL=FAL/F

The format of data set [2] is physicochemical. The settings on record: final nanoemulsion. The method, then: To test pharmacokinetic parameters for various cannabinoids, the self-emulsifying drug delivery system (SEDDS) was selected due to its facile preparation and as it has shown an enhanced absorption profile for CBD.1 However, prior to administration the oil phase was mixed with water forming nanoemulsion to decrease viscosity and facilitate application to rats. […]
formulation is in the paper referred to as nanoemulsion.
In general, the nanoemulsion was prepared as follows. First, the oil phase containing Propylene glycol monocaprylate (PGMC), surfactant Kolliphor EL (CR-EL), co-surfactant and cannabinoid was prepared and thoroughly homogenized. As co-surfactants, we tested three compounds:
Diethylene glycol monoethyl ether (TRSC) or Ethyl alcohol (ETOH) or Propylene glycol (PRGL).
Next, four parts of water with respect to one part of oil (by weight) were added dropwise to the oil mixture at mild stirring. The stability of prepared nanoemulsions (initially without cannabinoids) was evaluated using dynamic light scattering (LS Instruments, Switzerland). […] and unstable samples, characterized by very high turbidity or phase separation, respectively, were not further analyzed. Optimization results are shown in the form of ternary diagrams for three tested co-surfactants (TRSC, ETOH, PRGL) in Fig. S1.
According to the manufacturer, CBD is most soluble in PGMC among other products.2 High solubility was also expected for other cannabinoids, thus PGMC was chosen as a suitable oil-phase base for nanoemulsion formulation in this study. Next, CR-EL was selected as a surfactant capable of forming nanoemulsions with PGMC in a wide range of concentrations (based on previous non-published experiments). To optimize the composition, stability and the size dependence of various emulsion mixtures were investigated for systems containing the aforementioned components and selected co-surfactants – TRSC, ETOH and PRGL (without cannabinoids). According to the […]
with desirable sizes (Fig. S1). Furthermore, TRSC is a proven skin permeation enhancer and solubilizer. Moreover, as shown by Franceschinis et al., TRSC acted as an excellent absorption […]
enhancer for 4,6,4′trimethylangelicin during oral administration. […]
co-surfactant and solubilizer for the final formulation tested in the pharmacokinetic study.
The final composition of nanoemulsion was chosen based on the compromise between the cannabinoids' loading capacity and the used surfactant amount. The final formulation contained 50wt.% of CR-EL, 30wt.% of TRSC and 20wt.% of PGMC. Long-term stability for the optimized formulation was tested for two cannabinoid concentrations – 15 mg/ml and 30 mg/ml. Results are shown in Tab. S1. The size was below 30 nm even after 30 days for all cannabinoids at 15mg/ml […]
Although all formulations were stable over time and to avoid any colloid instability and cannabinoid decomposition, the water phase was added to the oil phase directly before application in pharmacokinetic study.

Where [3] appears, read: rat, in vivo, iv, 1.5 mg, nanoemulsion, rats, serum, dose-normalized to 1 mg/kg, mean ± SD.
The mark [4] stands for this setting: rat, in vivo, iv, 1.5 mg, T1/2, nanoemulsion, rats, mean ± SD.
Where [5] appears, read: rat, in vivo, po, nanoemulsion, rats, serum, dose-normalized to 1 mg/kg, mean ± SD.
The mark [6] stands for this setting: rat, in vivo, po, oil solution, rats, serum, dose-normalized to 1 mg/kg, mean ± SD.
[7] abbreviates: rat, in vivo, po, nanoemulsion, rats, 10 mg CBD, 15 mg others, serum, dose-normalized to 1 mg/kg, mean ± SD.
Setting [8] is: rat, in vivo, po, oil solution, rats, 10 mg CBD, 15 mg other cannabinoids, serum, dose-normalized to 1 mg/kg, mean ± SD.
[9] abbreviates: rat, in vivo, po, nanoemulsion, rats, mean ± SD.
Setting [10] is: rat, in vivo, po, oil solution, rats, mean ± SD.
The mark [11] stands for this setting: rat, in vivo, po, T1/2, nanoemulsion, rats, mean ± SD.
The mark [12] stands for this setting: rat, in vivo, po, T1/2, oil solution, rats, mean ± SD.

SMILES strings stand for the structures. Where two headings read alike, the source gives them in different places.

For the compound `CCCCCc1cc(O)c2c(c1)OC(C)(CCC=C(C)C)C=C2` (centres unmarked) [CBC, cannabichromene], the Vd in data set [1] (rat, in vivo, iv, 1.5 mg) amounted to 11 ± 2.2 L/kg. For the same compound, the clearance in data set [1] (rat, in vivo, iv, 1.5 mg) was 100 mL/min/kg. Moreover, the values for the total exposure AUC(0-inf) in data set [1] (setting [3]), in data set [1] (setting [5]) and in data set [1] (setting [6]) were 640 ± 85 ng·h/mL, 117 ± 33 ng·h/mL and 31 ± 23 ng·h/mL, respectively. For the same compound, the highest concentration (Cmax) in data set [1] (setting [3]) was found to be 935 ± 147 ng/mL; in data set [1] (setting [7]) it was 12 ± 2 ng/mL; in data set [1] (setting [8]), 2.6 ± 1.5 ng/mL. In addition, the half-life was 2.2 ± 0.4 h in data set [1] (setting [4]), 5.8 ± 1.9 h in data set [1] (setting [11]) and 13 ± 19 h in data set [1] (setting [12]). In addition, the bioavailability in data set [1] (setting [9]) came out at 18 ± 5%; in data set [1] (setting [10]) it was 34 ± 18%. The time to peak (Tmax) was determined as 3.6 ± 1.9 h in data set [1] (setting [9]) and 6 ± 1.3 h in data set [1] (setting [10]). The “DLS, 90° size” value was found to be 25 nm in data set [2] (cannabinoid 15 mg/ml, 1 day); 25 nm in data set [2] (cannabinoid 15 mg/ml, 30 days); 40 nm in data set [2] (cannabinoid 30 mg/ml, 1 day); 34 nm in data set [2] (cannabinoid 30 mg/ml, 30 days).
The compound `CCCCCc1cc(O)c2c(c1)OC(C)(C)c1ccc(C)cc1-2` [CBN, cannabinol] registered a T1/2 in data set [1] (nanoemulsion, IV, rats, 1.5 mg, mean ± SD) of 5.3 ± 1.8 h. The “F0-inf (absolute oral bioavailability)” value in data set [1] (nanoemulsion, PO, rats, mean ± SD) came out at 9.2 ± 2.6%. In addition, in data set [1] (rat, in vivo, iv, 1.5 mg), the Vd amounted to 6.5 ± 1.6 L/kg. This compound showed a clearance in data set [1] (rat, in vivo, iv, 1.5 mg) of 50 mL/min/kg. Also, the AUC(0-inf) in data set [1] (setting [3]) is 1040 ± 212 ng·h/mL; in data set [1] (setting [5]) it was 91 ± 19 ng·h/mL; in data set [1] (setting [6]), 148 ± 57 ng·h/mL. The Cmax in data set [1] (setting [3]) worked out at 1230 ± 252 ng/mL; in data set [1] (setting [7]), 12 ± 3 ng/mL; in data set [1] (setting [8]) it was 15.3 ± 4.6 ng/mL. For the same compound, the half-life in data set [1] (setting [4]) was 5 h; in data set [1] (setting [11]) it was 3.5 ± 1.1 h; in data set [1] (setting [12]), 4.2 ± 1.7 h. Moreover, the bioavailability in data set [1] (setting [9]) stood at 9%; in data set [1] (setting [10]), 20 ± 7%. In addition, the Tmax was found to be 2.2 ± 0.6 h in data set [1] (setting [9]) and 6.5 ± 1.2 h in data set [1] (setting [10]). Also, the “DLS, 90° size” value came out at 27 nm in data set [2] (cannabinoid 15 mg/ml, 1 day); 27 nm in data set [2] (cannabinoid 15 mg/ml, 30 days); 67 nm in data set [2] (cannabinoid 30 mg/ml, 1 day); 68 nm in data set [2] (cannabinoid 30 mg/ml, 30 days).
On to `C=C(C)[C@@H]1CCC(C)=C[C@H]1c1c(O)cc(CCCCC)cc1O` [CBD, cannabidiol], for which the AUC(0-inf) in data set [1] (setting [5]) stood at 256 ± 38 ng·h/mL; in data set [1] (setting [6]) it was 205 ± 57 ng·h/mL. This compound displayed a Cmax in data set [1] (setting [8]) of 27 ± 10 ng/mL. Moreover, the bioavailability was determined as 45 ± 18% in data set [1] (setting [9]) and 52 ± 19% in data set [1] (setting [10]). For the same compound, the values for the half-life in data set [1] (setting [11]) and in data set [1] (setting [12]) were 4.4 ± 0.8 h and 4.8 ± 0.8 h, respectively. In addition, the Tmax in data set [1] (setting [9]) stood at 3.2 ± 0.9 h; in data set [1] (setting [10]), 6.8 ± 1.9 h. The “DLS, 90° size” value in data set [2] (cannabinoid 15 mg/ml, 1 day) turned out to be 26 nm; in data set [2] (cannabinoid 15 mg/ml, 30 days) it was 26 nm; in data set [2] (cannabinoid 30 mg/ml, 1 day), 200 nm; in data set [2] (cannabinoid 30 mg/ml, 30 days), 222 nm.
`CCCCCc1cc(O)c(C/C=C(\C)CCC=C(C)C)c(O)c1` [CBG, cannabigerol]: in data set [1] (rat, in vivo, iv, 1.5 mg), the Vd was determined as 7.3 ± 2.3 L/kg, the clearance was 98.3 mL/min/kg, the total exposure AUC(0-inf) was 716 ± 136 ng·h/mL and the concentration peaked (Cmax) at 1190 ± 286 ng/mL. In data set [1] (rat, in vivo, iv, 1.5 mg, T1/2), the half-life is 2.5 ± 1.6 h. The same compound displayed a T1/2 in data set [1] (rat, in vivo, po) of 5.1 ± 4.1 h. In data set [1] (rat, in vivo, po, T1/2), this compound gave a half-life of 3.1 ± 1.3 h. In addition, the “DLS, 90° size” value in data set [2] (cannabinoid 15 mg/ml, 1 day) is reported as 31 nm. Moreover, the “DLS, 90° size” value in data set [2] (cannabinoid 15 mg/ml, 30 days) is on record as 32 nm.
